The CheMixHub viscosity set
± gives the uncertainty stated by the source.

Experiment: xn = mol fraction of the nth substance listed

CCCCCC(=O)O + c1ccccc1
298.15 K, 101 kPa
Conditions	viscosity [mPa·s]
x1 = 0.03	0.626 ± 0.017
x1 = 0.07	0.653 ± 0.017
x1 = 0.11	0.684 ± 0.018
x1 = 0.14	0.718 ± 0.019
x1 = 0.31	0.908 ± 0.024
x1 = 0.4	1.058 ± 0.028
x1 = 0.5	1.284 ± 0.034
x1 = 0.73	1.844 ± 0.048

CC(=O)CC(C)C + CCCCO
101 kPa
Conditions	viscosity [mPa·s]
303.15 K, x2 = 0.1311	0.542 ± 0.1
303.15 K, x2 = 0.2531	0.592 ± 0.1
303.15 K, x2 = 0.367	0.653 ± 0.1
303.15 K, x2 = 0.4745	0.748 ± 0.1
303.15 K, x2 = 0.5795	0.862 ± 0.1
303.15 K, x2 = 0.6729	0.997 ± 0.1
303.15 K, x2 = 0.7627	1.185 ± 0.1
303.15 K, x2 = 0.8465	1.42 ± 0.11
303.15 K, x2 = 0.9254	1.728 ± 0.11
313.15 K, x2 = 0.1311	0.482 ± 0.1
313.15 K, x2 = 0.2533	0.526 ± 0.1
313.15 K, x2 = 0.3677	0.578 ± 0.1
313.15 K, x2 = 0.4745	0.647 ± 0.1
313.15 K, x2 = 0.5754	0.733 ± 0.1
313.15 K, x2 = 0.6704	0.844 ± 0.1
313.15 K, x2 = 0.7604	0.98 ± 0.1
313.15 K, x2 = 0.9236	1.43 ± 0.11
323.15 K, x2 = 0.1319	0.428 ± 0.1
323.15 K, x2 = 0.2542	0.464 ± 0.1
323.15 K, x2 = 0.3688	0.507 ± 0.1
323.15 K, x2 = 0.4759	0.565 ± 0.1
323.15 K, x2 = 0.5759	0.621 ± 0.1
323.15 K, x2 = 0.6721	0.707 ± 0.1
323.15 K, x2 = 0.7597	0.801 ± 0.1
323.15 K, x2 = 0.8452	0.937 ± 0.1
323.15 K, x2 = 0.9386	1.136 ± 0.1

O=C1CCCCC1 + CCCCCCCCC
viscosity [mPa·s], 101.33 kPa
Conditions	x1 = 0.0999	x1 = 0.1981	x1 = 0.3012	x1 = 0.4032	x1 = 0.4987	x1 = 0.6007	x1 = 0.6942	x1 = 0.7981	x1 = 0.9006
298.15 K	0.683 ± 0.005	0.726 ± 0.005	0.772 ± 0.005	0.833 ± 0.006	0.909 ± 0.006	1.022 ± 0.007	1.134 ± 0.008	1.321 ± 0.009	1.544 ± 0.013
303.15 K	0.639 ± 0.005	0.675 ± 0.005	0.718 ± 0.005	0.775 ± 0.005	0.842 ± 0.006	0.936 ± 0.006	1.043 ± 0.007	1.21 ± 0.008	1.41 ± 0.009
308.15 K	0.6 ± 0.004	0.632 ± 0.005	0.672 ± 0.005	0.723 ± 0.005	0.784 ± 0.005	0.869 ± 0.006	0.967 ± 0.007	1.116 ± 0.007	1.294 ± 0.008

O=C1CCCCC1 + CS(C)=O
303.15 K, 101 kPa
Conditions	viscosity [mPa·s]
x2 = 0.099	1.721 ± 0.019
x2 = 0.1791	1.669 ± 0.017
x2 = 0.2687	1.649 ± 0.016
x2 = 0.3683	1.648 ± 0.015
x2 = 0.4653	1.657 ± 0.015
x2 = 0.5628	1.675 ± 0.014
x2 = 0.6679	1.698 ± 0.013
x2 = 0.7877	1.725 ± 0.012
x2 = 0.8903	1.755 ± 0.012

CC(=O)CC(C)C + ClC(Cl)Cl
298.15 K, 101 kPa
Conditions	viscosity [mPa·s]
x2 = 0.0813	0.5611 ± 0.0053
x2 = 0.1599	0.5799 ± 0.0055
x2 = 0.2352	0.5986 ± 0.0057
x2 = 0.3916	0.6341 ± 0.006
x2 = 0.497	0.6494 ± 0.0062
x2 = 0.6114	0.6521 ± 0.0063
x2 = 0.7252	0.6349 ± 0.0063
x2 = 0.864	0.5903 ± 0.006
x2 = 0.9291	0.5613 ± 0.0057

CCOCC + C=C(C)C(=O)OC
298.15 K, 101.3 kPa
Conditions	viscosity [mPa·s]
x2 = 0.0454	0.249 ± 0.003
x2 = 0.1483	0.281 ± 0.003
x2 = 0.249	0.314 ± 0.003
x2 = 0.3495	0.349 ± 0.003
x2 = 0.4486	0.385 ± 0.003
x2 = 0.4908	0.4 ± 0.004
x2 = 0.5479	0.421 ± 0.004
x2 = 0.6504	0.459 ± 0.004
x2 = 0.7501	0.496 ± 0.004
x2 = 0.8488	0.532 ± 0.004
x2 = 0.947	0.567 ± 0.004

CCC12CC3CC(CC(C3)C1)C2 + CCCCCCCCC
viscosity [mPa·s], 100 kPa
Conditions	x1 = 0.0998	x1 = 0.2013	x1 = 0.3004	x1 = 0.4014	x1 = 0.5002	x1 = 0.5999	x1 = 0.7002	x1 = 0.7995	x1 = 0.9008
293.15 K	1.043 ± 0.042	1.335 ± 0.054	1.642 ± 0.067	1.902 ± 0.077	2.234 ± 0.091	2.701 ± 0.11	3.287 ± 0.13	4.086 ± 0.17	5.133 ± 0.21
298.15 K	0.972 ± 0.04	1.243 ± 0.051	1.492 ± 0.061	1.728 ± 0.07	2.019 ± 0.082	2.384 ± 0.097	2.881 ± 0.12	3.537 ± 0.14	4.44 ± 0.18
303.15 K	0.921 ± 0.037	1.141 ± 0.046	1.369 ± 0.056	1.577 ± 0.064	1.836 ± 0.075	2.144 ± 0.087	2.581 ± 0.11	3.158 ± 0.13	3.898 ± 0.16
308.15 K	0.836 ± 0.034	1.053 ± 0.043	1.261 ± 0.051	1.448 ± 0.059	1.684 ± 0.068	1.957 ± 0.08	2.34 ± 0.095	2.833 ± 0.12	3.47 ± 0.14
313.15 K	0.786 ± 0.032	0.985 ± 0.04	1.166 ± 0.047	1.334 ± 0.054	1.547 ± 0.063	1.792 ± 0.073	2.128 ± 0.087	2.556 ± 0.1	3.114 ± 0.13
318.15 K	0.729 ± 0.03	0.901 ± 0.037	1.073 ± 0.044	1.232 ± 0.05	1.416 ± 0.058	1.644 ± 0.067	1.94 ± 0.079	2.32 ± 0.094	2.815 ± 0.12
323.15 K	0.696 ± 0.028	0.85 ± 0.035	1.006 ± 0.041	1.144 ± 0.047	1.317 ± 0.054	1.515 ± 0.062	1.782 ± 0.072	2.115 ± 0.086	2.547 ± 0.1

CC(=O)CC(C)C + CCCCCO
viscosity [mPa·s]
Conditions	x1 = 0.1011	x1 = 0.1974	x1 = 0.304	x1 = 0.4023	x1 = 0.5022	x1 = 0.6064	x1 = 0.7079	x1 = 0.7955	x1 = 0.8962
298.15 K, 101 kPa	2.47 ± 0.03	1.89 ± 0.02	1.46 ± 0.02	1.2 ± 0.02	1 ± 0.01	0.856 ± 0.011	0.738 ± 0.009	0.668 ± 0.008	0.592 ± 0.008
298.15 K, 101.3 kPa	2.47 ± 0.068	1.89 ± 0.052	1.46 ± 0.04	1.2 ± 0.033	1 ± 0.028	0.856 ± 0.024	0.738 ± 0.02	0.668 ± 0.018	0.592 ± 0.016
303.15 K, 101.3 kPa	2.2 ± 0.06	1.7 ± 0.047	1.32 ± 0.036	1.1 ± 0.03	0.919 ± 0.025	0.792 ± 0.022	0.694 ± 0.019	0.624 ± 0.017	0.558 ± 0.015
308.15 K, 101.3 kPa	1.96 ± 0.054	1.53 ± 0.042	1.2 ± 0.033	1.01 ± 0.028	0.846 ± 0.023	0.735 ± 0.02	0.646 ± 0.018	0.589 ± 0.016	0.53 ± 0.015
313.15 K, 101.3 kPa	1.75 ± 0.048	1.38 ± 0.038	1.09 ± 0.03	0.915 ± 0.025	0.781 ± 0.022	0.683 ± 0.019	0.601 ± 0.017	0.555 ± 0.015	0.501 ± 0.014

CCCCCCCCCCCCCC[P+](CCCCCC)(CCCCCC)CCCCCC.c1nnc[n-]1 + O
Conditions	viscosity [mPa·s]
298.15 K, 100 kPa, x2 = 0.7956	114 ± 3
